What was measured:
[1] = biological target: T1, Mitogen-activated protein kinase kinase kinase 5 (Homo sapiens) (UniProt Q99683); assay: Inhibition of ASK1 assessed as residual activity of enzyme at 10 uM
T1 sequence (whole entry): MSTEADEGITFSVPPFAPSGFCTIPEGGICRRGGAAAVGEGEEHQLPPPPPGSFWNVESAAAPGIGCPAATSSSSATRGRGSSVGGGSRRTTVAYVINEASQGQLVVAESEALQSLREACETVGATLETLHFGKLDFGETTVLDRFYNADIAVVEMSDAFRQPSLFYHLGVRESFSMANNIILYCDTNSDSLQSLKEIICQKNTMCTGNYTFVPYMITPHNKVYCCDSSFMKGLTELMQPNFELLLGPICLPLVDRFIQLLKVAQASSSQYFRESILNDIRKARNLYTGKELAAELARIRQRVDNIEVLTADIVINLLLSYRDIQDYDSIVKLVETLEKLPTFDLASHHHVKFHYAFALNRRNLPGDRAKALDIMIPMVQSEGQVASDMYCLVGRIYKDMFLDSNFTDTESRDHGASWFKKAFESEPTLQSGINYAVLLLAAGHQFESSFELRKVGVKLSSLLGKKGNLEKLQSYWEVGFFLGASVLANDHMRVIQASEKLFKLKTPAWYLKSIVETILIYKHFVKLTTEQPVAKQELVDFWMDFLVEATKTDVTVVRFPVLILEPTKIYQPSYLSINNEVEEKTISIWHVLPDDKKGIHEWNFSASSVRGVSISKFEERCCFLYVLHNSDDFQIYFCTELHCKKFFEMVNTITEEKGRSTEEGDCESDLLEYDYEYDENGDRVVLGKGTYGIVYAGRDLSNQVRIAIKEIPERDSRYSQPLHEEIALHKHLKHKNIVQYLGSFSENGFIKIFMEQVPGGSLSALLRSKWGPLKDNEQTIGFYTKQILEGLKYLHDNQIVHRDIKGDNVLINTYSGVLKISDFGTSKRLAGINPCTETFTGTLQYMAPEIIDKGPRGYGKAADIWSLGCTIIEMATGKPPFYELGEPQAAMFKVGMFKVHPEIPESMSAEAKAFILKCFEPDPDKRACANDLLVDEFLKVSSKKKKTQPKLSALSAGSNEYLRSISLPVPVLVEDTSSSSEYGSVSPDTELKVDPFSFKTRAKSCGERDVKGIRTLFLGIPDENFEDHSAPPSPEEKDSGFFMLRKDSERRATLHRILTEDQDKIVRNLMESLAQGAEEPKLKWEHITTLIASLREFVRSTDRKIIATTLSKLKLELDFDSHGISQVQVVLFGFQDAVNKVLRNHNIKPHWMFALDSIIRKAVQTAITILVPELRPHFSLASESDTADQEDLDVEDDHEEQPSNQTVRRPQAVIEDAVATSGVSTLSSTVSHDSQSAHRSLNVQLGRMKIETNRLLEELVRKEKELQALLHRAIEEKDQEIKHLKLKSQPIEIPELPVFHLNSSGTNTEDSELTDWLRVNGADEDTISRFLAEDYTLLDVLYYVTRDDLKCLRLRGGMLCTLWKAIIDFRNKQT

[2] = tested on: Leucine-rich repeat serine/threonine-protein kinase 2 (Homo sapiens), Q5S007 [G2019S]; assay: Inhibition of purified N-terminal GST-tagged LRRK2 G2019S mutant assessed as residual activity of enzyme at 25 uM
[3] = biological target: Glycogen synthase kinase-3 beta (Homo sapiens) (UniProt P49841); assay: Inhibition of GSK3-beta assessed as residual activity of enzyme at 10 uM
[4] = biological target: T2, Serine/threonine-protein kinase TAO2 (Homo sapiens) (UniProt Q9UL54); assay: Inhibition of TAO2 assessed as residual activity of enzyme at 25 uM
T2 sequence (whole entry): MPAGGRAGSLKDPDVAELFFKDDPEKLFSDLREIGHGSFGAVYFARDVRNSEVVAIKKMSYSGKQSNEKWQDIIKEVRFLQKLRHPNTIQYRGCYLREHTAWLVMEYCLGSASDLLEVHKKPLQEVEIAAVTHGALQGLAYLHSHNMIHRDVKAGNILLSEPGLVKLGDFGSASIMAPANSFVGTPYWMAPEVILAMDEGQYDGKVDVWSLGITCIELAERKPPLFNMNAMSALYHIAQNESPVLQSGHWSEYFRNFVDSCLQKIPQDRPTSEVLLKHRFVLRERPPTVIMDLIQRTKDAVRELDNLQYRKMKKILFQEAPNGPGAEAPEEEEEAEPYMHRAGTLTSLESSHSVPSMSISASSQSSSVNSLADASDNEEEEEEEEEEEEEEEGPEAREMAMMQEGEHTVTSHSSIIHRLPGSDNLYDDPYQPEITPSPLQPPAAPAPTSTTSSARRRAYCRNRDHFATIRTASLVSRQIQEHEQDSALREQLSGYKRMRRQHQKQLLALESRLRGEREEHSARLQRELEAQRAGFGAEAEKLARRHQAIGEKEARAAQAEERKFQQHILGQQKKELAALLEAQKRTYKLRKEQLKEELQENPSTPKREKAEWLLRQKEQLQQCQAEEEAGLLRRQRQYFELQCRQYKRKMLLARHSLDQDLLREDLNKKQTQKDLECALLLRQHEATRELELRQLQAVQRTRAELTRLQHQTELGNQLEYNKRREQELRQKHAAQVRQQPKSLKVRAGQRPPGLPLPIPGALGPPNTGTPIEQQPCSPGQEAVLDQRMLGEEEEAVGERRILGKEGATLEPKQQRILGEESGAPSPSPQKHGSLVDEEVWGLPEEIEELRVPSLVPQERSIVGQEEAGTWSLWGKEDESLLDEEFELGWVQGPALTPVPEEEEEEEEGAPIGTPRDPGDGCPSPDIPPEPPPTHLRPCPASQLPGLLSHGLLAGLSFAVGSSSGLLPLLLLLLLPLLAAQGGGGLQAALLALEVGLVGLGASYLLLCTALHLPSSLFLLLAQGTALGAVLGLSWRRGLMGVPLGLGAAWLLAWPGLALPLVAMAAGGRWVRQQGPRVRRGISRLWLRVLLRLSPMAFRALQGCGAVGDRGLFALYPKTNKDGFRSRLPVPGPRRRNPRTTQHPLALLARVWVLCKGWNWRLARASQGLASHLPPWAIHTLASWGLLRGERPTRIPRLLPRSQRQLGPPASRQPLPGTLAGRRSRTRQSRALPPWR

[5] = tested on: Leucine-rich repeat serine/threonine-protein kinase 2 (Homo sapiens), Q5S007 [G2019S]; assay: Inhibition of LRRK2 G2019S mutant expressed in mouse SN4741 cells assessed as reduction in hydrogen peroxide-induced neurotoxicity at 10 uM by measuring cell survival after 48 hrs by crystal violet assay relative to control; type: cell-based
[6] = biological target: Mitogen-activated protein kinase kinase kinase 9 (Homo sapiens) (UniProt P80192); assay: Inhibition of MLK1 assessed as residual activity of enzyme at 25 uM
[7] = biological target: Glycogen synthase kinase-3 beta (Homo sapiens) (UniProt P49841); assay: Inhibition of GSK3-beta assessed as residual activity of enzyme at 25 uM
[8] = biological target: Ribosomal protein S6 kinase beta-1 (Homo sapiens) (UniProt P23443); assay: Inhibition of p70S6K assessed as residual activity of enzyme at 25 uM
[9] = Neurotoxicity in rat primary cortical neurons assessed as cell survival at 100 uM after 24 hrs by MTT assay; type: toxicity, cell-based; settings: cerebral cortex neuron

Sequence of Leucine-rich repeat serine/threonine-protein kinase 2 (Homo sapiens), Q5S007 [G2019S] (Q5S007 whole entry G2019S): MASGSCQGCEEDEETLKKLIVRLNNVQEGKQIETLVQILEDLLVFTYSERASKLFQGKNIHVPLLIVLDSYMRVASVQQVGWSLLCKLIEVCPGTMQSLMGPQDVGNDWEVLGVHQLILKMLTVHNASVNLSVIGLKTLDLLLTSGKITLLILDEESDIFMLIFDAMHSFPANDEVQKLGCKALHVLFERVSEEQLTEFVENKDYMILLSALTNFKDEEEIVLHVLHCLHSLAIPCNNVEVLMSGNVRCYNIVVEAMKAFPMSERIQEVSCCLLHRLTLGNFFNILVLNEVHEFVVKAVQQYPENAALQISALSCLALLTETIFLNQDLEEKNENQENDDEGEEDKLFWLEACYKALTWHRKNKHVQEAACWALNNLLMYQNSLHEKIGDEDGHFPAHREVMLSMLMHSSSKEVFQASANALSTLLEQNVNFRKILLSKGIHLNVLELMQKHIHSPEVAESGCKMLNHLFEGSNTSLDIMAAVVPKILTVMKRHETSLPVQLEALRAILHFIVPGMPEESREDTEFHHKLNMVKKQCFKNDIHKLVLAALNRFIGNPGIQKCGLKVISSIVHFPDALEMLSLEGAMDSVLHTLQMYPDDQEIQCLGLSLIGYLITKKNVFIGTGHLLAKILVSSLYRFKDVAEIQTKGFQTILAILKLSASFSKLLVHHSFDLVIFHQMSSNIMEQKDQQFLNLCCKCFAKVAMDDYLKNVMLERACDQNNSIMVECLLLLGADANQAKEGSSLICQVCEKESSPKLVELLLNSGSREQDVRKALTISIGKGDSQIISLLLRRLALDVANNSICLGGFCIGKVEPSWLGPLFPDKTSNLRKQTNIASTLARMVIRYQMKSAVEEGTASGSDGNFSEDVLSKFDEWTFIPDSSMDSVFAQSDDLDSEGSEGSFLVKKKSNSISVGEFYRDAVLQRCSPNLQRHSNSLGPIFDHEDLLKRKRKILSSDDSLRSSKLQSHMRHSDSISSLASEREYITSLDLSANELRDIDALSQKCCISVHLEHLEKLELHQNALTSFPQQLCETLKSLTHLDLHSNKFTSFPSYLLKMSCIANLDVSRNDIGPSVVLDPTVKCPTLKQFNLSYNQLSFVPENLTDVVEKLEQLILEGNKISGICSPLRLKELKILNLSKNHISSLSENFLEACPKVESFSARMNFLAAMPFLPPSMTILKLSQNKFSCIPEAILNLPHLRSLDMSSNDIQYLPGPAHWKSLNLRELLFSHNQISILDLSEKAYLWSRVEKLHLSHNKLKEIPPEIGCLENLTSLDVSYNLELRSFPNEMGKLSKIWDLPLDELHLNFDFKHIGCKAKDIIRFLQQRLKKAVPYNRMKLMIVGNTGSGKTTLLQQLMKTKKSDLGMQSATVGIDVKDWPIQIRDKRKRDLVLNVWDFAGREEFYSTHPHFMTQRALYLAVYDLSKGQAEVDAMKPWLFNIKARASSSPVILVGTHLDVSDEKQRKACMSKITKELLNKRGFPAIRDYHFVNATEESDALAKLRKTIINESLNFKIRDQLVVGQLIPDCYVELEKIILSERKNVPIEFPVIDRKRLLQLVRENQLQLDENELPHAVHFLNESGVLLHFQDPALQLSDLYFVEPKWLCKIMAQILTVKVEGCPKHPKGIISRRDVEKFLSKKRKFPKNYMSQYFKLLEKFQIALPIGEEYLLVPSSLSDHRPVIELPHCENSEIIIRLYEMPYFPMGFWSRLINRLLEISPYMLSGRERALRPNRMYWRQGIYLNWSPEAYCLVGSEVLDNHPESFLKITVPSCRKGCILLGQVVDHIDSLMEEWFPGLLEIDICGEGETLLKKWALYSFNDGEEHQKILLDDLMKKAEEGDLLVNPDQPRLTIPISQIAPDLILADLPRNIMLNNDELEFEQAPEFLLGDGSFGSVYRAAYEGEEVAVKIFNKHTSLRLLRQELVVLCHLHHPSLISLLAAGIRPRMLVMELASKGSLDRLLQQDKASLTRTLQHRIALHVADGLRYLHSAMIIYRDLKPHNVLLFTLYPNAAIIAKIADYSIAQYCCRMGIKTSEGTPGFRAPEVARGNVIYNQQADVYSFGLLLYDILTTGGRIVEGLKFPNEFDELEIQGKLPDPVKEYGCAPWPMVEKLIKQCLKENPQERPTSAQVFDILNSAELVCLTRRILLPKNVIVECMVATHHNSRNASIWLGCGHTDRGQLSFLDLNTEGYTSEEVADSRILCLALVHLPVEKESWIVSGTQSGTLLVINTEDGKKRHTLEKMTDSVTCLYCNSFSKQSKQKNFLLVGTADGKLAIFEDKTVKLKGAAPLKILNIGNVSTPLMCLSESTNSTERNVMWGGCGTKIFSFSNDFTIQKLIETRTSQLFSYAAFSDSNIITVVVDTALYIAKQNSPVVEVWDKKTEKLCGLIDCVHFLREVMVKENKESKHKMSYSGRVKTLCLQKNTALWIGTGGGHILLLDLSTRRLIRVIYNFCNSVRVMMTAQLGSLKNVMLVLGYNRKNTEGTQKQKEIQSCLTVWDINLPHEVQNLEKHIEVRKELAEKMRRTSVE
Sequence of Glycogen synthase kinase-3 beta (Homo sapiens) (P49841 whole entry, looked up): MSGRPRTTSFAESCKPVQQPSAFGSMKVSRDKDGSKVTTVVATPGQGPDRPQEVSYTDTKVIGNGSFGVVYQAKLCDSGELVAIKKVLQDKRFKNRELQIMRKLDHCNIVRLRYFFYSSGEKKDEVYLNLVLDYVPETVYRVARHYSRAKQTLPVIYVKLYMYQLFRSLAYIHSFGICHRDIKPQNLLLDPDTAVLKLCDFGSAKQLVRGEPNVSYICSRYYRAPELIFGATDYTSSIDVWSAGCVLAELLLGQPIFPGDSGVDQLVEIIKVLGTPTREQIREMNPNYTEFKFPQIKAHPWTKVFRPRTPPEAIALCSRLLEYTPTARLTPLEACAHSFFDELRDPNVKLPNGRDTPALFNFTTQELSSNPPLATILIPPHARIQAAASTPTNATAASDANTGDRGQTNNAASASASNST
Sequence of Mitogen-activated protein kinase kinase kinase 9 (Homo sapiens) (P80192 whole entry, looked up): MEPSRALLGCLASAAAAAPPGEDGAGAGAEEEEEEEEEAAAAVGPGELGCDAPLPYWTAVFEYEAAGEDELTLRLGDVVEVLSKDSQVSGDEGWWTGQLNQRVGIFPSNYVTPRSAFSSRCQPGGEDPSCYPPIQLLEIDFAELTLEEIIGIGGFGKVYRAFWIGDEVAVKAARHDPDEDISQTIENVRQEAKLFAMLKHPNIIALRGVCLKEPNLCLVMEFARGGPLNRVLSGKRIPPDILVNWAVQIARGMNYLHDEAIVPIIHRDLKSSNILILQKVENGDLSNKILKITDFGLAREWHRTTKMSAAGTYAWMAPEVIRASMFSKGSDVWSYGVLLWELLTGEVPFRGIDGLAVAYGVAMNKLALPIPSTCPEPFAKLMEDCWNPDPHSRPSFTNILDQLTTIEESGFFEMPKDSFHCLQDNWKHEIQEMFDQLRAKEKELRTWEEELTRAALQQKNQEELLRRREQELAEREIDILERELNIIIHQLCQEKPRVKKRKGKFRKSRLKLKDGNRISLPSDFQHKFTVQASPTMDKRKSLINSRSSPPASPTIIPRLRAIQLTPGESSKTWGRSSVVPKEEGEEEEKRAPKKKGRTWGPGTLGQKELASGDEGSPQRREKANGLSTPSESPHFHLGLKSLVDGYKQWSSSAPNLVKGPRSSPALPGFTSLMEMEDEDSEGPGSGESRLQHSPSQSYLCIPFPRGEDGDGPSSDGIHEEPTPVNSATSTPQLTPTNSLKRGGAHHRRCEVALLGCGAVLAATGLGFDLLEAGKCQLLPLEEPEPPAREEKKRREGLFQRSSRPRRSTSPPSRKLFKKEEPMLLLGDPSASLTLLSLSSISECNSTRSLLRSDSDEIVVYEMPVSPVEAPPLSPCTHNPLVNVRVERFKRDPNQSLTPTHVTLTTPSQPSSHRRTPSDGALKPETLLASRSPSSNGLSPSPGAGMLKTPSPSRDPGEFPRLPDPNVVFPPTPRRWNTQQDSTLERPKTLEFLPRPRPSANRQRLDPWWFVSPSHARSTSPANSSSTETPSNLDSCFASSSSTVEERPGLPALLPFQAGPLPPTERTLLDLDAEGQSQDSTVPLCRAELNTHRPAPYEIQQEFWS
Sequence of Ribosomal protein S6 kinase beta-1 (Homo sapiens) (P23443 whole entry, looked up): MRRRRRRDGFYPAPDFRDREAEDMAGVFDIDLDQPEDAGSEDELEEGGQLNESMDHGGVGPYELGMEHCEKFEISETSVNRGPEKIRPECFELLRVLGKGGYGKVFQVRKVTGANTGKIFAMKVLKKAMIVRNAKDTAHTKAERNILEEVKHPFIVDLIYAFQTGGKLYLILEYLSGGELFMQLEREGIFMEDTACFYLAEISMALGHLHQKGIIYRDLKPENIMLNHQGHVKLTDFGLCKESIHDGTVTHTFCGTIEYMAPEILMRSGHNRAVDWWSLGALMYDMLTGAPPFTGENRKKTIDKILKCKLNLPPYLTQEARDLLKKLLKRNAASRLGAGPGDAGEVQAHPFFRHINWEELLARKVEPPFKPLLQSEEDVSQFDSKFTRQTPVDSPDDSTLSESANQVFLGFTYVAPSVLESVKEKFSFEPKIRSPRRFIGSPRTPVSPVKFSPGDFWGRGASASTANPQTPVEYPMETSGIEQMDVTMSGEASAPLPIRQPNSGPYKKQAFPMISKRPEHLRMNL

Cc1cc(N/N=C/c2ccncc2)nc2ccccc12
Activity [1]: 94% | Activity [2]: 11% | Activity [3]: 99% | Activity [4]: 84% | Activity [5]: 50% | Activity [6]: 12% | Activity [7]: 94% | Activity [8]: 50% | Activity [9]: Toxic
